Measured values reported in patent US9693556B2, “Herbicidal pyridazinone derivatives” (SYNGENTA LIMITED, priority 2011, dated 2017).

Legend:
Format in all cases: in vivo
[1] = tested on: Echinochloa crus-galli (ECHCG); test: Pre-emergence herbicidal glasshouse test on Echinochloa crus-galli; conditions: pre-emergence, 1000 g/h, evaluated after 13 days; for herbicidal damage, PRE Application ECHCG: five point scale
In short: (§1)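 Plants sprayed 1 day (pre-emergence) or 8 days (post-emergence) after sowing with compound at 1000 g/h in acetone/water 50:50 with 0.5% Tween 20; glasshouse 24/16° C, 14 h light, 65% humidity. Damage assessed after 13 days, scored 1–5 (5 = 80-100%, 1 = 0-19%).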

Solanum nigrum (SOLNI) [2] = test: Post-emergence herbicidal glasshouse test on Solanum nigrum; conditions: post-emergence, 1000 g/h, evaluated after 13 days; for herbicidal damage, POST Application SOLNI: five point scale
In short: as §1

Setaria faberi (SETFA) [3] = test: Post-emergence herbicidal glasshouse test on Setaria faberi; conditions: post-emergence, 1000 g/h, evaluated after 13 days; for herbicidal damage, POST Application SETFA: five point scale
In short: as §1

[4] = tested on: Alopecurus myosuroides (ALOMY); test: Post-emergence herbicidal glasshouse test on Alopecurus myosuroides; conditions: post-emergence, 1000 g/h, evaluated after 13 days; for herbicidal damage, POST Application ALOMY: five point scale
In short: as §1

[5] = tested on: Echinochloa crus-galli (ECHCG); test: Post-emergence herbicidal glasshouse test on Echinochloa crus-galli; conditions: post-emergence, 1000 g/h, evaluated after 13 days; for herbicidal damage, POST Application ECHCG: five point scale
In short: as §1

[6] = tested on: Ipomoea hederacea (IPOHE); test: Post-emergence herbicidal glasshouse test on Ipomoea hederacea; conditions: post-emergence, 1000 g/h, evaluated after 13 days; for herbicidal damage, POST Application IPOHE: five point scale
In short: as §1

[7] = tested on: Amaranthus retoflexus (AMARE); test: Pre-emergence herbicidal glasshouse test on Amaranthus retoflexus; conditions: pre-emergence, 1000 g/h, evaluated after 13 days; for herbicidal damage, PRE Application AMARE: five point scale
In short: as §1

[8] = tested on: Alopecurus myosuroides (ALOMY); test: Pre-emergence herbicidal glasshouse test on Alopecurus myosuroides; conditions: pre-emergence, 1000 g/h, evaluated after 13 days; for herbicidal damage, PRE Application ALOMY: five point scale
In short: as §1

Setaria faberi (SETFA) [9] = test: Pre-emergence herbicidal glasshouse test on Setaria faberi; conditions: pre-emergence, 1000 g/h, evaluated after 13 days; for herbicidal damage, PRE Application SETFA: five point scale
In short: as §1

[10] = tested on: Amaranthus retoflexus (AMARE); test: Post-emergence herbicidal glasshouse test on Amaranthus retoflexus; conditions: post-emergence, 1000 g/h, evaluated after 13 days; for herbicidal damage, POST Application AMARE: five point scale
In short: as §1

[11] = tested on: Ipomoea hederacea (IPOHE); test: Pre-emergence herbicidal glasshouse test on Ipomoea hederacea; conditions: pre-emergence, 1000 g/h, evaluated after 13 days; for herbicidal damage, PRE Application IPOHE: five point scale
In short: as §1

Solanum nigrum (SOLNI) [12] = test: Pre-emergence herbicidal glasshouse test on Solanum nigrum; conditions: pre-emergence, 1000 g/h, evaluated after 13 days; for herbicidal damage, PRE Application SOLNI: five point scale
In short: as §1

SMILES | herbicidal damage, PRE Application ECHCG [1] | herbicidal damage, POST Application SOLNI (Solanum nigrum (SOLNI) [2]) | herbicidal damage, POST Application SETFA (Setaria faberi (SETFA) [3]) | herbicidal damage, POST Application ALOMY [4] | herbicidal damage, POST Application ECHCG [5] | herbicidal damage, POST Application IPOHE [6] | herbicidal damage, PRE Application AMARE [7] | herbicidal damage, PRE Application ALOMY [8] | herbicidal damage, PRE Application SETFA (Setaria faberi (SETFA) [9]) | herbicidal damage, POST Application AMARE [10] | herbicidal damage, PRE Application IPOHE [11] | herbicidal damage, PRE Application SOLNI (Solanum nigrum (SOLNI) [12]) | PRE Application ECHCG herbicidal damage (five point scale) [1] | POST Application SOLNI herbicidal damage (five point scale) (Solanum nigrum (SOLNI) [2]) | POST Application SETFA herbicidal damage (five point scale) (Setaria faberi (SETFA) [3]) | POST Application ALOMY herbicidal damage (five point scale) [4] | POST Application ECHCG herbicidal damage (five point scale) [5] | POST Application IPOHE herbicidal damage (five point scale) [6] | PRE Application AMARE herbicidal damage (five point scale) [7] | PRE Application ALOMY herbicidal damage (five point scale) [8] | also measured
COc1ccc(-c2cnn(C)c(=O)c2O)c(OC)n1 [Compound 1.153] | 2 (2=20-39% damage) | 4 (4=60-79% damage) | 1 (1=0-19% damage) | 1 (1=0-19% damage) | 1 (1=0-19% damage) | 2 (2=20-39% damage) | 2 (2=20-39% damage) | 1 (1=0-19% damage) | 1 (1=0-19% damage) | 2 (2=20-39% damage) | 3 (3=40-59% damage) | 2 (2=20-39% damage) | – | – | – | – | – | – | – | – | –
Cn1ncc(-n2ccc3ccccc3c2=O)c(O)c1=O [Compound 1.069] | – | – | – | – | – | – | – | – | – | – | – | – | 5 (5=80-100% damage) | 4 (4=60-79% damage) | 1 (1=0-19% damage) | 2 (2=20-39% damage) | 5 (5=80-100% damage) | 4 (4=60-79% damage) | 2 (2=20-39% damage) | 1 (1=0-19% damage) | PRE Application SETFA herbicidal damage (five point scale) (Setaria faberi (SETFA) [9]): 2 (2=20-39% damage); POST Application AMARE herbicidal damage (five point scale) [10]: 5 (5=80-100% damage); PRE Application IPOHE herbicidal damage (five point scale) [11]: 4 (4=60-79% damage); PRE Application SOLNI herbicidal damage (five point scale) (Solanum nigrum (SOLNI) [12]): 2 (2=20-39% damage)
Cn1ncc(-c2ccc(S(C)(=O)=O)c3c2COC3)c(O)c1=O [Compound 1.030] | – | – | – | – | – | – | – | – | – | – | – | – | 2 (2=20-39% damage) | 5 (5=80-100% damage) | 2 (2=20-39% damage) | 1 (1=0-19% damage) | 4 (4=60-79% damage) | 3 (3=40-59% damage) | 5 (5=80-100% damage) | 1 (1=0-19% damage) | PRE Application SETFA herbicidal damage (five point scale) (Setaria faberi (SETFA) [9]): 1 (1=0-19% damage); POST Application AMARE herbicidal damage (five point scale) [10]: 5 (5=80-100% damage); PRE Application IPOHE herbicidal damage (five point scale) [11]: 1 (1=0-19% damage); PRE Application SOLNI herbicidal damage (five point scale) (Solanum nigrum (SOLNI) [12]): 4 (4=60-79% damage)
Cn1ncc(-c2cc3cc(N4CCOCC4)cnc3nc2C(F)(F)F)c(O)c1=O [Compound 1.164] | 4 (4=60-79% damage) | 5 (5=80-100% damage) | 5 (5=80-100% damage) | 1 (1=0-19% damage) | 5 (5=80-100% damage) | 5 (5=80-100% damage) | 3 (3=40-59% damage) | 1 (1=0-19% damage) | 2 (2=20-39% damage) | 5 (5=80-100% damage) | 4 (4=60-79% damage) | 2 (2=20-39% damage) | – | – | – | – | – | – | – | – | –
